The values that follow come from PubChem BioAssay (NCI).

Common to all, as to assay: NCI tumour cell line growth inhibition, 48 h
The subject of test [1] is A498 renal.
Test [2] deals with IGROV1 ovarian.
Test [3] concerns SNB-75 CNS.
In test [4] the test system is RPMI-8226 leukemia.
Test [5] relates to NCI-H226 lung.
For test [6], the system named is NCI-H522 lung.
The test system of test [7] is LOX IMVI melanoma.
The test system of test [8] is MALME-3M melanoma.
Test [9] deals with DU-145 prostate.

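Values below derive from 48-hour exposures of cells grown in 96-well plates, with endpoints linearly interpolated between the two concentrations bracketing the appropriate inhibition level. GI50 marks 50% less growth. TGI: total growth inhibition.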 A value given as a limit tells only on which side of the number the result lay.

As for `Nc1c(O)cc(N=C2C(=O)C=CC=C2C(=O)O)c(O)c1C(=O)O`, the TGI in test [1], in test [2], in test [3], in test [4], in test [5] and in [6] was greater than 100 µM each time. The TGI is greater than 100 µM in [7] and greater than 57.4 µM in test [8].

On to `Cc1cc(-c2ccccc2)nc(Nc2nc3ccccc3o2)n1`, for which the TGI in test [1], in [2], in test [4], in [5], in test [6] and in test [7] was greater than 100 µM throughout. The same compound gave a TGI in [8] greater than 100 µM.

`COC(=O)C1=C(c2ccc(OC)c(OC)c2)OC(c2cc(OC)c(OC)c(OC)c2)C1` (stereo unspecified): the TGI is 63 µM in [1]; greater than 100 µM in [2]; 25.6 µM in [3]; greater than 100 µM in [4]; greater than 100 µM in test [5]; greater than 100 µM in test [7]. The compound further registered a TGI in test [8] greater than 100 µM.

For the compound `CN=C(NC(=S)N(C)C)N(C)C`, the TGI in [1], in test [2], in test [3], in [4], in test [5] and in test [6] was greater than 100 µM each time. Further, the TGI in test [8] was greater than 100 µM.

With `O=[N+]([O-])c1ccc(C2CC(c3ccccc3Cl)=Nc3ccccc3S2=O)cc1` (stereo unspecified), the TGI in test [1] was 6.03 µM; in test [2], 8.57 µM; in test [3], 21.4 µM; in test [4], 4.19 µM; in [9], 34.1 µM; in [5], 17.6 µM. The figures for the TGI in [6], in test [7] and in test [8] were 3.28 µM, 3.79 µM and 32 µM, respectively.

Turning to `Cc1cccc(C(C)C)c1N1C(=O)C(=O)C(c2nc3ccccc3o2)C(=O)C1=O`, the TGI in test [1] was greater than 100 µM; in [2] it was greater than 100 µM; in test [3], greater than 100 µM; in test [5], greater than 100 µM; in test [6] it was 89.5 µM; in test [7], greater than 100 µM. This compound also displayed a TGI in test [8] greater than 100 µM.

With `N#CC1CCCCOCCOCCOCCOCCOCCCCCC1=O` (stereo unspecified), the TGI in [1], in [2], in test [3], in test [4], in [5] and in test [6] was greater than 100 µM in each case. Besides, the TGI in test [7] and in [8] was greater than 100 µM throughout.

For `CCCCC(C)C(OC(=O)CC(CC(=O)O)C(=O)O)C(CC(C)CC(O)CCCCC(O)CC(O)C(C)N)OC(=O)CC(CC(=O)O)C(=O)O` (stereo unspecified), the TGI in [1], in test [2], in test [3], in test [4], in test [5] and in [6] was greater than 100 µM each time. Also, the TGI in [7] and in test [8] was greater than 100 µM throughout.

For `C#CC[N+](C)(CC#C)CC#C`, the TGI in test [2], in test [3], in test [4], in test [6], in test [7] and in [8] was greater than 100 µM throughout.

In the case of `O=C(CC1(O)C(=O)Nc2ccc(Br)cc21)c1ccc(Cl)cc1Cl` (stereo unspecified), the TGI is greater than 100 µM in test [1]; greater than 100 µM in test [2]; greater than 100 µM in test [3]; 50.7 µM in [4]; greater than 100 µM in [5]; 70.5 µM in test [6]. In test [8], this compound yielded a TGI greater than 100 µM.

Take `O=[N+]([O-])c1ccc(Cl)c(C2CC(c3cccc4ccccc34)=Nc3ccccc3S2)c1` (stereo unspecified): the TGI in [1] is greater than 78.9 µM; in test [2], greater than 100 µM; in [3] it was 60.5 µM; in [4], greater than 47.5 µM; in [5], greater than 67.1 µM; in test [6], 43.9 µM. The values for the TGI in test [7] and in test [8] were 59.2 µM and greater than 100 µM, respectively.

Turning to `S=c1nc(COc2ccc(Cl)cc2Cl)[nH][nH]1`, the TGI in [1], in test [2], in [3], in test [4], in test [5] and in test [7] was greater than 100 µM in each case. This compound also showed a TGI in [8] greater than 100 µM.

On to `CS(=O)(=O)NNS(=O)(=O)c1ccccc1`, for which the TGI in test [1], in [2], in test [3], in test [4], in test [5] and in test [6] was greater than 100 µM each time. In addition, the TGI in [7] and in test [8] was greater than 100 µM each time.

`Cc1nnc2c3nnc(C)n3c3ccccc3n12`: the TGI in test [1], in test [2], in test [3], in [4], in test [5] and in test [6] was greater than 100 µM each time. Further, the TGI in test [7] and in [8] was greater than 100 µM in each case.

For the compound `CC(=O)c1c(CN(C)c2ccccc2)n([O-])c2ccccc2[n+]1=O`, the GI50 in test [1] was 28.1 µM; in test [2], 45.4 µM; in test [3], 53 µM; in [4] it was 13.2 µM; in test [9] it was 42.1 µM; in test [5], 20.2 µM. For the same compound, the figures for the GI50 in test [6], in test [7] and in test [8] were 25.6 µM, 38.2 µM and 23.9 µM, respectively. Further, the TGI is greater than 100 µM in test [1]; greater than 100 µM in test [2]; greater than 100 µM in [3]; 40.9 µM in test [4]; greater than 100 µM in [9]; 67.5 µM in test [5]. For the same compound, the TGI in test [6] was 69.9 µM; in test [7] it was greater than 100 µM; in test [8], 87.2 µM.

For `NC(=O)c1c([N+](=O)[O-])cc(C(F)(F)F)cc1[N+](=O)[O-]`, the TGI in [1], in [2], in [3], in [4], in test [5] and in test [6] was greater than 100 µM each time. The results for the TGI in test [7] and in test [8] were greater than 100 µM and 52.1 µM, respectively.
